Assay results taken from patent US20210386705A1, “APPLICATION OF CHIGLITAZAR AND RELATED COMPOUNDS THEREOF” (SHENZHEN CHIPSCREEN BIOSCIENCES CO., LTD., priority 2018, published 2021).

Assays:
[1] = test system: primary human hepatic stellate cells; test: PDGF-BB stimulated proliferation of hepatic stellate cells (EdU and MTT assay); assay type: cell-based; settings: EdU 24 hours, MTT 72 hours, FIGS. 1-2
Protocol: Primary human hepatic stellate cells (HSC) purchased from Sciencell Research Laboratories, Inc. were seeded into 96-well plates with complete growth media (Stellate Cell Medium) for 24 hours, followed by culturing overnight in culture media free of serum and growth factors, and then the culture media were replaced by fresh media containing platelet-derived growth factor (PDGF-BB) and the compounds to be tested (chiglitazar sodium or the reference compound PPARγ/α dual agonist pioglitazone purchased from Selleck Chemicals LLC) at various concentrations, and the cells were cultured for 24 hours. When the cells were treated with the compounds for the last 17 hours, EdU (5-ethynyl-2′-deoxyuridine) was added to the cells. Finally, the culture media were removed and the cells were fixed with formaldehyde. The amount of the EdU incorporated into the DNA of the cells was quantified by fluorescent Click-it EdU assay according to the manufacturer's instructions (Beyotime). […] The inhibition of cell proliferation by the compounds was determined by comparing the EdU incorporated value of the control group (FIG. 1). […]

[2] = test system: α-smooth muscle actin (α-SMA); test: TGF-β1-activated hepatic stellate cells, α-SMA gene expression (qPCR); assay type: cell-based, human; settings: TGF-β1 stimulation, 24 hours; FIG. 4
Protocol: Human primary hepatic stellate cells were seeded into 6-well plates with complete growth media (Stellate Cell Medium) for 24 hours, and then the culture media were replaced by fresh media (free of serum and growth factors) containing TGF-β1 and the compound to be tested (sodium chiglitazar) or the reference compound PPARγ/α dual agonist pioglitazone or PPARα/δ dual agonist GFT505 (both purchased from Selleck), and the cells were cultured for 24 hours. The total RNAs of the samples were extracted, and reverse transcription reaction was performed. Thereafter, a conventional PCR amplification kit (FastStart Universal SYBR@ Green Master (ROX), Roche) was used for further detection, where the PCR primers were designed with reference to the NCBI standard mRNA sequence of the target genes (Table 2). PCR reaction and detection were carried out on the ABI StepOnePlus real-time quantitative PCR instrument. By calculating the relative amount of transcripts was calculate by “Delta-Delta CT method” (Livak et al. Methods 2001), and using ACTB as the housekeeping gene for normalization and the average data of untreated human hepatic stellate cells as a reference control, the relative change folds of gene expression were obtained (FIG. 4).

[3] = test system: CCl4-induced liver fibrosis; test: Mouse model of carbon tetrachloride induced liver fibrosis; assay type: in vivo, BALB/c mice; settings: 40, 20 and 10 mg/kg intragastrically, from the fourth week to the 7th week
Protocol: BALB/c mice were injected intraperitoneally with 25% CCl4 (4 mL/kg body weight) twice a week, which can cause liver damage and chronic liver fibrosis in 3 weeks. The model animals were administered for 6 weeks continuously, and the non-model control group was administered the solvent control olive oil for the same period. Model animals were randomly divided into groups from the third week. The control group was administered solvent (0.2% sodium methylcellulose) intragastrically from the fourth week, and the sodium chiglitazar at high, medium and low dose groups were administered 40, 20, and 10 mg/kg body weight of the active ingredient sodium chiglitazar intragastrically, respectively (Table 4), until the end of the experiment in the 7th week. […]
The liver tissue sections were stained with Picrosirius Red for morphological observation (FIG. 9), and measured by using a semi-automatic digital image analysis system and the measurement software (OsteoMetrics, Inc.). The pathologist single-blindly tested and hand-drew the entire sections, and then measured the fibrosis area on the entire sections in straight lines. The software automatically calculated the total area of the measurement. […]

Compound: O=C(c1ccc(F)cc1)c1ccccc1N[C@@H](Cc1ccc(OCCn2c3ccccc3c3ccccc32)cc1)C(=O)[O-].[Na+] [sodium chiglitazar]
- Inhibition of in vitro proliferation of liver-derived fibroblasts [1]: had inhibitory activity
- Effect on expression of α-smooth muscle actin [2]: significantly inhibited
- Inflammatory activity of liver tissues (Metavir score, H&E staining) ([3]; FIGS. 7-8): partially inhibit
- Fibrosis degree of liver tissues (fibrosis area %, Picrosirius Red) ([3]; FIGS. 9-10): partially inhibit
